Patent US9345731B2, “Herbal extract as sensitivity enhancer toward insulin and antidiabetes” (PT. DEXA MEDICA, priority 2008, dated 2016)

What was measured:
3T3 Swiss Albino cells = test: In vitro toxicity test (MTT) on cell viability; type: cell-based; details: 0.02 μM, 48 hours
Protocol: METHODS: 3T3 Swiss Albino cells were cultured in 96-well plates. The cells were then administered with the extract combination of Lagerstroemia speciosa and Cinnamomum burmannii in a range of dose 1-10 μg/ml, pioglitazone and glimepiride (as control) for 48 hours to study the extract toxicity towards cells. Each well was added MTT reagent and the number of living cells was counted using a spectrometer.

[1] = test system: insulin resistance adipocytes 3T3 Swiss Albino cells; test: Glucose uptake by insulin resistance adipocytes (anthrone reagent, spectrophotometer); type: cell-based; details: 5 μg/ml extract combination or 0.02 μM pioglitazone, 48 hours, from the initial 5% (untreated)
Protocol: FIG. 12 is the graphic of glucose measurement results obtained from insulin resistance adipocytes 3T3 Swiss Albino after administration of 5 μg/ml Lythraceae and Lauraceae family plant combination extracts or 0.02 μM pioglitazone and/or 25 nM insulin during 48 hours incubation, then incubation with 5 mg/ml glucose for 0, 2, 4, 6 hours. 3T3 Swiss Albino cells were differentiated until 3T3 Swiss Albino pre-adipocytes and 3T3 Swiss Albino adipocytes cells were obtained. Each cell type received excessive glucose for over 2 weeks. Incubated cells received such excessive glucose were used as insulin resistance model. After that, those four type cells obtained were tested for its ability to uptake glucose in media. The remaining glucose level was analyzed so that the glucose level uptaken by each 3T3 Swiss Albino cell type could be determined. To measure glucose level that was uptaken by cell, we used an experiment method which is initialized by culturing 3T3 Swiss Albino cells in 6 cm-diameter plates. […] Glucose concentration that was uptaken by cells was measured by subtracting the initial glucose concentration with the remaining glucose in media at the end of incubation time. […] The reaction result was quantified by spectrophotometer.

With `CCC1=C(C)CN(C(=O)NCCc2ccc(S(=O)(=O)NC(=O)N[C@H]3CC[C@H](C)CC3)cc2)C1=O` [glimepiride] the cell viability (3T3 Swiss Albino cells) was “did not show any effect”.

For `CCc1ccc(CCOc2ccc(CC3SC(=O)NC3=O)cc2)nc1` (stereo not drawn) [pioglitazone], the glucose level uptaken [1] was 20% and the cell viability (3T3 Swiss Albino cells) was “did not show any effect”.
